“And” between values parts separate entries of the source, which are not always exact repeats. Equal values may be shown once. “Also recorded” adds a separate entry of the source. Read-outs that look alike come from different tables or passages of the source.
What was measured:
all muscarinic receptors = details: cited from earlier work
[1] = molecular target: muscarinic receptors (3H-CD sites, M1 and M2, forebrain); experiment: Displacement of 3H-cis-dioxolane (3H-CD, non-selective M1 and M2 agonist) from rat forebrain homogenate; format: binding
[2] = molecular target: T1, M1 muscarinic receptors (3H-PZ sites, forebrain) (Rattus norvegicus, UniProt P08482); experiment: Displacement of 3H-Pirenzepine (3H-PZ, selective M1 antagonist) from rat forebrain homogenate; format: binding
T1 sequence (P08482 1-460): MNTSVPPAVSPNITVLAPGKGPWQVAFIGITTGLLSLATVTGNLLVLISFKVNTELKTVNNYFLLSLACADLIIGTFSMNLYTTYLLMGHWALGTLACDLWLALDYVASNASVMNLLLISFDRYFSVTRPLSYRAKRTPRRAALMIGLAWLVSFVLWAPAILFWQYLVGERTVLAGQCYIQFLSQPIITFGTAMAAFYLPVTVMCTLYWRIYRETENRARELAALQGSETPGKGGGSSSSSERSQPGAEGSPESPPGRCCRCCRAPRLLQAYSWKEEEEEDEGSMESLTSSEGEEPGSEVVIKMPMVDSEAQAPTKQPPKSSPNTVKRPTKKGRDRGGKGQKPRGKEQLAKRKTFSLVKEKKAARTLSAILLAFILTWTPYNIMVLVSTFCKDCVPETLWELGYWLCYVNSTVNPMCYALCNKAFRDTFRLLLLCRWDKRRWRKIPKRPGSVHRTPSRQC

[3] = molecular target: T2, M1 muscarinic receptors (3H-PZ sites, frontal cortex) (Rattus norvegicus, UniProt P08482); experiment: Displacement of 3H-PZ from rat frontal cortex homogenate; format: binding; details: for a':c', Ki(3H-PZ):Ki(3H-CD): (g) frontal cortex ratio
T2 sequence (P08482 1-460): T1 sequence (P08482 1-460)

[4] = molecular target: muscarinic receptors (3H-CD sites, frontal cortex); experiment: Displacement of 3H-CD from rat frontal cortex homogenate; format: binding; details: (c') frontal cortex
[5] = molecular target: muscarinic receptors (3H-QNB sites, frontal cortex); format: binding, rat; details: (b') frontal cortex
[6] = system: muscarinic receptors (3H-QNB sites, cerebellum, mainly M2); experiment: biochemical; format: binding, rat; details: for b':b": (k) Ki(3H-QNB) frontal cortex : Ki(3H-QNB) cerebellum
[7] = molecular target: T3, muscarinic receptors (3H-QNB sites, cerebellum, mainly M2) (Rattus norvegicus, UniProt P10980); experiment: biochemical; format: binding; details: Ki(3H-QNB), (b") cerebellum
T3 sequence (P10980 1-466): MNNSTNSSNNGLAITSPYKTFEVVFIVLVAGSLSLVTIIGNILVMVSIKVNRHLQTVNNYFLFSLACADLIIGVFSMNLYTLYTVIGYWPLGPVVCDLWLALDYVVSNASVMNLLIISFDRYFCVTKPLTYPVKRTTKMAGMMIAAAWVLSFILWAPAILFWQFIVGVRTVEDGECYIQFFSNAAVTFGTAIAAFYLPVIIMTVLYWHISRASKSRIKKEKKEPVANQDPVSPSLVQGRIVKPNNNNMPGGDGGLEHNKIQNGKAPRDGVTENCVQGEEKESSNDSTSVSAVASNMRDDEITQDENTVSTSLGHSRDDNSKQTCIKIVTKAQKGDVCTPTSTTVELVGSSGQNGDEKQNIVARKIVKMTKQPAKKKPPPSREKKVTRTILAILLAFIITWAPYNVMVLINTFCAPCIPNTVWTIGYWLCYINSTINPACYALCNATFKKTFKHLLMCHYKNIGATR

[8] = molecular target: muscarinic receptors (3H-QNB sites, M1 and M2, forebrain); format: binding, rat; details: (b) forebrain
mice = experiment: Pharmacodynamic profile and general toxicity in mice; format: in vivo, CD-1 mice
Description: Male white mice of the CD-1 strain supplied by Charles River Ltd. (U.K.) were used throughout. An acclimatization period of at least three days was allowed between arrival and commencement of a particular experimental series. The animals were fed a complete commercial pelleted rodent diet without restriction during the acclimatization and study periods. Animals had free access to tap water. Body weights during testing were mostly within 20-28 g.
Test materials were prepared as aqueous solutions in physiological saline (0.9% NaCl), up to a maximum concentration of 10 mg./ml. All materials were freshly prepared on the morning prior to each dosing session. Dosages were expressed gravimetrically (mg./kg.), in terms of the materials as received.
Groups of mice (mostly n=5) received either i.v. or oral administration of the test materials at various dose levels. Dose volumes appropriate for respective dose levels selected, were determined for each animal according to body weights on the day of dosing. Any behavioral changes occurring during one to two hours after administration, as well as incidence of death up to 24 hours after dosing were recorded.

[9] = system: isolated guinea-pig ileum; experiment: Contraction of isolated guinea-pig ileum preparation; details: listed as AF122A
From the text: (§1) From this Table, it appears that compounds (III) were not so effective in contracting the guinea pig ileum preparation.

[10] = system: ACh-induced contractions of guinea-pig ileum; experiment: Blocking of ACh-induced contractions of isolated guinea-pig ileum; details: listed as AF122A
From the text: as §1

[11] = 25 mg/kg i.v., listed as (±)-III AF122A
[12] = 100 mg/kg p.o., listed as (±)-III AF122A
[13] = 200 mg/kg p.o., listed as (±)-III AF122A

For `O=C1CCCN1CC#CCN1CCCC1` [compound 1, Oxotremorine], the “affinity towards all muscarinic receptors (in words)” value (all muscarinic receptors) is given as “greater than those of the weaker agonists McN-A-343 or compound #3”, the Ki ([1]; (c) forebrain, * in M × 10^-10) is given as 0.96 ± 0.42 nM and the “order of the ratios Ki(3H-PZ):Ki(3H-CD)” value [2] is given as “oxotremorine >McN-A-343>compound # 3; also recorded: weakest relative affinity towards M1 binding sites”. The “a:b, Ki(3H-PZ):Ki(3H-QNB)” value ([2]; (d) forebrain ratio) was 0.29, the “order of the ratios Ki(3H-PZ):Ki(3H-QNB)” value ([2]; forebrain, among oxotremorine, McN-A-343, compound #3) was “McN-A-343 >compound #3>oxotremorine; also recorded: relatively stronger than McN-A-343 and compound #3” and the “a':b', Ki(3H-PZ):Ki(3H-QNB)” value ([3]; (f) frontal cortex ratio) was 0.1. For the same compound, the “a':c', Ki(3H-PZ):Ki(3H-CD)” value [3] was 137.5, the Ki ([3]; Ki(3H-PZ)) was 220 ± 70 nM and the Ki [4] was 1.6 ± 0.4 nM. The Ki [5] was 2200 ± 300 nM, the “a:b"” value ([6]; (h) Ki(3H-PZ) forebrain : Ki(3H-QNB) cerebellum) was 0.86 and the “b:b"” value ([6]; (j) Ki(3H-QNB) forebrain : Ki(3H-QNB) cerebellum) was 3.00. For the same compound, the “b':b"” value [6] was 1.69, the “order of M1 versus M2 selectivity, IC50 (FB):IC50 (CER) or IC50 (frontal cortex):IC50 (CER)” value ([6]; FB=forebrain, CER=cerebellum) was “compound #4>compound #3>oxotremorine” and the Ki [7] was 700 nM and 1310 nM. For the same compound, the Ki [8] was 2100 ± 300 nM.

In the case of `CC1OCC2(CN3CCC2CC3)S1` (stereo not shown) [compound 11, 2-methylspiro(1,3-oxathiolan-4,3')quinuclidine], the “Analgesia (nonresponsiveness to tail pinch), No. affected/total treated” value (mice; 10 mg/kg i.v.) is reported as 2/5, the “Vocalization, No. affected/total treated” value (mice; 10 mg/kg i.v.) is reported as 2/5 and the “Mortality, No. dead/total treated” value (mice; 10 mg/kg i.v., listed as (±)-III AF122A) is reported as 0/5. The “Vocalization, No. affected/total treated” value (mice; 25 mg/kg i.v.) was 3/6, the “Analgesia (nonresponsiveness to tail pinch), No. affected/total treated” value (mice; [11]) was 4/5 and the “Convulsive seizures, No. affected/total treated” value (mice; [11]) was 1/6. The “Exophthalmus, No. affected/total treated” value (mice; [11]) was 3/6, the “Mortality, No. dead/total treated” value (mice; [11]) was 1/6 and the “Respiratory distress, No. affected/total treated” value (mice; [11]) was 4/6. For the same compound, the “Tremors, No. affected/total treated” value (mice; [11]) was 3/6, the “Mortality, time after drug administration” value (“Mortality, time” for short) (mice; 25 mg/kg i.v., m = minutes) was 1 m and the “Convulsive seizures, No. affected/total treated” value (mice; 50 mg/kg i.v.) was 2/2. For the same compound, the “Mortality, No. dead/total treated” value (mice; 50 mg/kg i.v.) was 2/2, the “Mortality, time” value (mice; 50 mg/kg i.v.) was 5 s and the “Mortality, No. dead/total treated” value (mice; 50 mg/kg p.o.) was 0/5. The “Mortality, No. dead/total treated” value (mice; 100 mg/kg i.v.) was 2/2, the “Mortality, time” value (mice; 100 mg/kg i.v., immed = immediately) was “immed” and the “Mortality, No. dead/total treated” value (mice; [12]) was 0/5. For the same compound, the “Tremors, No. affected/total treated” value (mice; [12]) was 5/5, the “Mortality, time” value (mice; 200 mg/kg p.o.) was 30 s and the “Convulsive seizures, No. affected/total treated” value (mice; [13]) was 5/5. The “Mortality, No. dead/total treated” value (mice; [13]) was 5/5, the “Tremors, No. affected/total treated” value (mice; [13]) was 5/5 and the Ki ([1]; Table 2B column (c'), footnote *forebrain) was 750 nM. For the same compound, the “M1 selectivity (in words)” value ([2]; from Tables 2A, 2B, 2C) was “high M1 selectivity”, the “a':b', Ki(3H-PZ):Ki(3H-QNB)” value [3] was 0.09 and the Ki ([3]; (a') frontal cortex, read-out: Ki(3H-PZ)) was 840 ± 30 nM. For the same compound, the “a':c', Ki(3H-PZ):Ki(3H-CD)” value [3] was 1.0, the “Contraction of guinea pig ileum (in words)” value [9] was “did not produce any significant contractions in the concentration range within which it binds to the brain receptors” and the Ki [5] was 9700 ± 2300 nM. For the same compound, the “Effect on ACh-induced contractions (in words)” value [10] was “perturbed the ACh-induced contractions when applied in relatively high concentrations”, the “b':b"” value [6] was 0.49 and the Ki [7] was 19800 ± 6100 nM.

— US4876260A, “Oxathiolanes” (State of Israel, Israel Institute of Biological Research, priority 1988, dated 1989)
